Experimental data: patent publication US11999737B2, “Kinase inhibitors and related methods of use” (Duke University, priority 2014, dated 2024)

Legend:
[1] = tested on: RLC20 phosphorylation; assay: Western blot of RLC20 phosphorylation in Ca2+-sensitized rabbit ileum; settings: HS38 50 μM
Method: To examine the effect of ZIPK inhibition on sensitized force, muscle strips were stimulated with an intermediate calcium concentration solution (pCa 6.5). Once force reached a plateau, strips were Ca^2+-sensitized by the addition of the agonist carbachol (5 μM). Up to 2 μM of GTP was added together with the sensitizing agonist to compensate for possible loss of GTP during permeabilization. At the plateau of Ca-sensitized force (5-10 min upon stimulation), the ZIPK inhibitor, HS38 (50 μM) or diluent (0.1% DMSO) was added and the force relaxation time course was recorded. Tissue samples were frozen 20 min after the addition of HS38 for biochemical assays of RLC20 and MYPT1 phosphorylation.
MYPT1 and RLC20 phosphorylation: To examine the phosphorylation of MYPT1 and RLC20, rabbit ileum SM strips were treated as described above and previously reported. (Gong et al. (1995), J. Physiol.-London 486, 113-122; Kitazawa et al. (1989) J. Biol. Chem. 264, 5339-5342; Kobayashi et al. (1991) Am. J. Physiol. 260, C364-C370), Following the stimulation protocols, muscle strips were immediately frozen by immersion in −80° C. acetone with trichloroacetic acid (10% w/v) and stored at −80° C. […] Phosphorylation of MYPT1 Thr696 and of RLC20 was determined by SDS-PAGE and Western blotting. […]

[2] = tested on: spontaneous hypertensive rat (SHR); assay: HS-38 treatment of spontaneous hypertensive rats, vessel properties; type: in vivo
Method: The myogenic response and ZIP-dependency of pressure autoregulation were assessed. Two age groups, 8-10 weeks and 18-20 weeks, were used to permit identification of age-dependent alterations in myogenic responses associated with the onset of diabetes/hypertension and after the diseases had become fully established. Two rat models were used, spontaneous hypertensive rat(SHR) model, and Goto-Kakizaki (GK) rat model of type 2 diabetes (T2D). […] HS-38 treatment attenuated myogenic hypercontractility in the cremaster artery of spontaneously-hypertensive rats (SHR; FIG. 33; WKY=Wistar Kyoto rat, control).
No effect of HS38 was observed on the ratio of wall thickness/vessel diameter in the SHR mesenteric artery.

[3] = biological target: T1, DYRK2 (Homo sapiens, UniProt Q92630); assay: 33P-ATP filter-binding kinase assay
T1 sequence (Q92630 1-601): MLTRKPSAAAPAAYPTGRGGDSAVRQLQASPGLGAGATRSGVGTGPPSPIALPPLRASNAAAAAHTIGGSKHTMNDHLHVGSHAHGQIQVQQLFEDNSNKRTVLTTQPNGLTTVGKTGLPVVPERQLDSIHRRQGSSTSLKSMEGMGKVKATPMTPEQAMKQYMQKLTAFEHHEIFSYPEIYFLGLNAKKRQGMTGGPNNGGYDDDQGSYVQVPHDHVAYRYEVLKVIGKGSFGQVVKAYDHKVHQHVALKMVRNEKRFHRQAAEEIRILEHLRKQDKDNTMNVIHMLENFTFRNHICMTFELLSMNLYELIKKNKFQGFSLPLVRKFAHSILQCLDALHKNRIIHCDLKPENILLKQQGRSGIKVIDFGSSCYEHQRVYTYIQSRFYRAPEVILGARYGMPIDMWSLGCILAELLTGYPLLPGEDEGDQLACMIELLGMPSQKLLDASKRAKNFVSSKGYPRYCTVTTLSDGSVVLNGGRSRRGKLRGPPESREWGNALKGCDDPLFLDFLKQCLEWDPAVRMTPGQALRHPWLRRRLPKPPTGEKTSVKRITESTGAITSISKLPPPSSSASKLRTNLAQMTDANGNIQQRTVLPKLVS

[4] = tested on: isolated PCA vessels (posterior cerebral artery of the rat); assay: Dilation of isolated PCA vessels previously constricted with 5HT
Description: FIG. 47 is a graph of HS-38 concentration versus percent dilation of isolated PCA vessels (posterior cerebral artery of the rat) previously constricted with 5HT.
ZIPK expression differences within different vascular beds may provide distinct pharmacology.

For `CC(Sc1nc2c(cnn2-c2cccc(Cl)c2)c(=O)[nH]1)C(N)=O` (centres unmarked) [HS38], the RLC20 phosphorylation level [1] was “significantly reduced”, the circumferential strain ([2]; HS-38 treatment) was “increased” and the “vessel narrowing seen in hypertension” value ([2]; HS-38 treatment) was “partially reversed”. For the same compound, the “myogenic hypercontractility in the cremaster artery” value ([2]; HS-38 treatment, SHR) was “attenuated”, the “ratio of wall thickness/vessel diameter” value ([2]; SHR mesenteric artery) was “No effect” and the IC50 ([3]; mean ± S.D., n = 2) was 1800 ± 600 nM. For the same compound, the activity at 10 µM ([3]; read-out: % Activity (10 μM HS38)) was 21% and the “dilation of vessels previously constricted with 5HT” value [4] was “induced dilation”.
